Assay results taken from ChEMBL document CHEMBL3046918, “Conventional and microwave-assisted synthesis of imidazole and guanidine derivatives and their biological evaluation” (2011).
Counter-ions that a name gives are not always drawn.

Tests used:
Type in all cases: functional
SF-295 = experiment: Growth inhibition of Homo sapiens (human) SF295 cells at 10^-5 M after 48 hr by SRB assay; conditions: SF-295, 48 h, read-out: GI
PC-3 = experiment: Growth inhibition of Homo sapiens (human) PC3 cells at 10^-5 M after 48 hr by SRB assay; conditions: PC-3, 48 h, read-out: GI
MCF7 = experiment: Growth inhibition of Homo sapiens (human) MCF7 cells at 10^-5 M after 48 hr by SRB assay; conditions: MCF7, 48 h, read-out: GI
HOP-62 = experiment: Growth inhibition of Homo sapiens (human) HOP62 cells at 10^-5 M after 48 hr by SRB assay; conditions: HOP-62, 48 h, read-out: GI
IGROV-1 = experiment: Growth inhibition of Homo sapiens (human) IGROV1 cells at 10^-5 M after 48 hr by SRB assay; conditions: IGROV-1, 48 h, read-out: GI
A549 = experiment: Growth inhibition of Homo sapiens (human) A549 cells at 10^-5 M after 48 hr by SRB assay; conditions: A549, 48 h, read-out: GI
Rattus norvegicus = experiment: Anti-inflammatory activity in Rattus norvegicus Charles Foster albino (rat) assessed as inhibition of carrageenan-induced paw edema at 50 mg/kg, po administered 30 min prior to carrageenan-challenge measured up to 3 hr relative to control; parameters: scale not given: the % may be the effect or the level left

| SMILES | inhibition of growth at 10 µM (SF-295) | inhibition of growth at 10 µM (PC-3) | inhibition of growth at 10 µM (MCF7) | inhibition of growth at 10 µM (HOP-62) | inhibition of growth at 10 µM (IGROV-1) | inhibition of growth at 10 µM (A549) | Activity (Rattus norvegicus) |
| --- | --- | --- | --- | --- | --- | --- | --- |
| O=C1c2ccccc2C(=O)c2c1ccc1nc(-c3cccc4ccccc34)[nH]c21 | 81% | 71% | 76% | 61% | 71% | 93% | 14% |
| Cc1ccsc1-c1nc2ccc3c(c2[nH]1)C(=O)c1ccccc1C3=O | 30% | 16% | 36% | 19% | 6% | 15% | 16% |
| Cc1ccc(-c2nc3ccc4c(c3[nH]2)C(=O)c2ccccc2C4=O)s1 | 43% | 14% | 47% | 6% | 8% | 35% | 26% |
| Cn1cccc1-c1nc2ccc3c(c2[nH]1)C(=O)c1ccccc1C3=O | 52% | 28% | 72% | 11% | 27% | 31% | 34% |
| O=C1c2ccccc2C(=O)c2c1ccc1nc(-c3ccc4ccccc4c3)[nH]c21 | 34% | 15% | 26% | 9% | 9% | 2% | 35% |
| O=C1c2ccccc2C(=O)c2c1ccc1nc(-c3c(O)ccc4ccccc34)[nH]c21 | 92% | 87% | 61% | 78% | 82% | 97% | 22% |
| Cc1ccsc1-c1nc2cc3nc4ccccc4nc3cc2[nH]1 | 28% | 12% | 17% | 4% | 30% | 27% | 38% |
| Cc1ccc(-c2nc3cc4nc5ccccc5nc4cc3[nH]2)s1 | 32% | 29% | 56% | 20% | 18% | 53% | 10% |
| Cn1cccc1-c1nc2cc3nc4ccccc4nc3cc2[nH]1 | 40% | 43% | 41% | 12% | 26% | 36% | 14% |
| c1ccc2c(-c3nc4cc5nc6ccccc6nc5cc4[nH]3)cccc2c1 | 100% | 97% | 88% | 98% | 92% | 97% | 19% |
| c1ccc2cc(-c3nc4cc5nc6ccccc6nc5cc4[nH]3)ccc2c1 | 20% | 22% | 29% | 9% | 19% | 26% | 28% |
| Oc1ccc2ccccc2c1-c1nc2cc3nc4ccccc4nc3cc2[nH]1 | 97% | 81% | 84% | 90% | 84% | 87% | 30% |
| Cc1ccsc1/C=N\C(=N)Nc1nc2ccccc2[nH]1 | 40% | 10% | 9% | 13% | 17% | 3% | 38% |
| Cc1ccc(/C=N\C(=N)Nc2nc3ccccc3[nH]2)s1 | 36% | 8% | 0% | 14% | 20% | 13% | 24% |
| Cn1cccc1/C=N/C(=N)Nc1nc2ccccc2[nH]1 | 40% | 1% | 24% | 28% | 23% | 12% | 0% |
| N=C(/N=C/c1cccc2ccccc12)Nc1nc2ccccc2[nH]1 | 40% | 13% | 25% | 26% | 13% | 9% | 34% |
| N=C(/N=C\c1ccc2ccccc2c1)Nc1nc2ccccc2[nH]1 | 42% | 10% | 6% | 18% | 26% | 8% | 26% |
| N=C(/N=C/c1c(O)ccc2ccccc12)Nc1nc2ccccc2[nH]1 | 34% | 15% | 4% | 9% | 23% | 2% | 0% |
| COc1cccc2c1C(=O)c1c(O)c3c(c(O)c1C2=O)C[C@@](O)(C(=O)CO)C[C@@H]3O[C@H]1C[C@H](N)[C@H](O)[C@H](C)O1 [DOXORUBICIN HYDROCHLORIDE] | 69% |  | 72% | 32% | 39% | 27% |  |
| CO[C@@]12[C@H](COC(N)=O)C3=C(C(=O)C(C)=C(N)C3=O)N1C[C@@H]1N[C@@H]12 [MITOMYCIN] | 43% | 61% |  |  | 47% |  |  |
| CC(=O)O[C@H]1C(=O)[C@@]2(C)[C@H]([C@H](OC(=O)c3ccccc3)[C@]3(O)C[C@H](OC(=O)[C@H](O)[C@@H](NC(=O)c4ccccc4)c4ccccc4)C(C)=C1C3(C)C)[C@]1(OC(C)=O)CO[C@@H]1C[C@@H]2O [PACLITAXEL] |  |  |  | 37% | 37% | 54% |  |
